Data: US6670383B2, “Pyranocoumarin compounds as a novel pharmacophore with anti-TB activity” (priority 2001, dated 2003)
Values after ≈ are worked out from the molar mass of the structure shown. Like-named read-outs stand apart in the source and are kept apart here.

Columns and labels:
Assay in all cases: microbe, parasite or virus in culture
Assay type in all cases: cell-based
[1] = test system: M. tuberculosis strain 1348
[2] = test system: M. tuberculosis strain 1371
[3] = test system: M. tuberculosis strain 1356
[4] = test system: M. tuberculosis strain 1369
[5] = Mycobacterium tuberculosis, 1348
[6] = Mycobacterium tuberculosis, 1371
[7] = Mycobacterium tuberculosis, 1356
[8] = Mycobacterium tuberculosis, 1369

**Q.** For `CC[C@@H](CO)NCCN[C@@H](CC)CO` [Ethambutol], which MIC [1, 5] is on record?
**A.** 8 µg/mL (≈ 39.2 µM)

**Q.** And the fold resistance ([1]; strain 1348)?
**A.** 4 fold

**Q.** What about the MIC [2, 6] of the same compound?
**A.** 2 µg/mL (≈ 9.79 µM)

**Q.** What about the fold resistance ([2]; strain 1371) of the same compound?
**A.** 1 fold

**Q.** What about the MIC [3, 7] of the same compound?
**A.** 64 µg/mL (≈ 313 µM)

**Q.** And the fold resistance ([3]; strain 1356)?
**A.** 32 fold

**Q.** And the MIC [4, 8]?
**A.** 2 µg/mL (≈ 9.79 µM)

**Q.** And the fold resistance ([4]; strain 1369)?
**A.** 1 fold

**Q.** `NNC(=O)c1ccncc1` [Isoniazid] was tested. Which fold resistance [1] did it give?
**A.** >128 (>4100) fold

**Q.** And the MIC [1, 5]?
**A.** > 128 µg/mL

**Q.** What about the fold resistance [2] of the same compound?
**A.** 0.031 (1) fold

**Q.** And the MIC [2, 6]?
**A.** 0.031 µg/mL (≈ 0.226 µM)

**Q.** And the fold resistance [3]?
**A.** 0.25 (8) fold

**Q.** What about the MIC [3, 7] of the same compound?
**A.** 0.25 µg/mL (≈ 1.82 µM)

**Q.** And the fold resistance [4]?
**A.** 0.031 (1) fold

**Q.** And the MIC [4, 8]?
**A.** 0.031 µg/mL (≈ 0.226 µM)

**Q.** What does the source list for `CO[C@H]1/C=C/O[C@@]2(C)Oc3c(C)c(O)c4c(O)c(c(/C=N/N5CCN(C)CC5)c(O)c4c3C2=O)NC(=O)/C(C)=C\C=C\[C@H](C)[C@H](O)[C@@H](C)[C@@H](O)[C@@H](C)[C@H](OC(C)=O)[C@@H]1C` [Rifampin]?
**A.** fold resistance [1]: 0.031 (2) fold; MIC [1, 5]: 0.031 µg/mL (≈ 0.0377 µM); fold resistance [2]: 0.016 (1) fold; MIC [2, 6]: 0.016 µg/mL (≈ 0.0194 µM); fold resistance [3]: 0.031 (2) fold; MIC [3, 7]: 0.031 µg/mL (≈ 0.0377 µM); fold resistance [4]: 64 (4,000) fold; MIC [4, 8]: 64 µg/mL (≈ 77.8 µM)

**Q.** `[H]/N=C(/N)N[C@H]1[C@H](O)[C@@H](O)[C@H](O[C@@H]2O[C@@H](C)[C@](O)(C=O)[C@H]2O[C@@H]2O[C@@H](CO)[C@H](O)[C@@H](O)[C@@H]2NC)[C@@H](N/C(N)=N\[H])[C@@H]1O` [Streptomycin] was tested. Which MIC [1, 5] did it give?
**A.** 0.25 µg/mL (≈ 0.43 µM)

**Q.** And the fold resistance ([1]; strain 1348)?
**A.** 1 fold

**Q.** And the MIC [2, 6]?
**A.** > 128 µg/mL

**Q.** What about the fold resistance ([2]; strain 1371) of the same compound?
**A.** (>512) fold

**Q.** What about the MIC [3, 7] of the same compound?
**A.** 0.25 µg/mL (≈ 0.43 µM)

**Q.** What about the fold resistance ([3]; strain 1356) of the same compound?
**A.** 1 fold

**Q.** And the MIC [4, 8]?
**A.** 0.25 µg/mL (≈ 0.43 µM)

**Q.** What about the fold resistance ([4]; strain 1369) of the same compound?
**A.** 1 fold

**Q.** Which MIC ([1]; strain 1348) does the source give for (+)-Calanolide A [(+)-Calanolide A (1)] here?
**A.** 8 µg/mL

**Q.** What about the fold resistance ([1]; strain 1348) of the same compound?
**A.** 1 fold

**Q.** And the MIC ([2]; strain 1371)?
**A.** 8 µg/mL

**Q.** And the fold resistance ([2]; strain 1371)?
**A.** 1 fold

**Q.** What about the MIC ([3]; strain 1356) of the same compound?
**A.** 8 µg/mL

**Q.** What about the fold resistance ([3]; strain 1356) of the same compound?
**A.** 1 fold

**Q.** What about the MIC ([4]; strain 1369) of the same compound?
**A.** 8 µg/mL

**Q.** What about the fold resistance ([4]; strain 1369) of the same compound?
**A.** 1 fold
